These results are taken from ChEMBL document CHEMBL5042501, “Gwanakosides A and B, 6-Deoxy-α-l-talopyranose-Bearing Aromatic Metabolites from a Streptomyces sp. and Coculture with Pandoraea sp” (J Nat Prod, 2022).

Structures are written as SMILES. ≈ marks a conversion by molar mass, not a printed value. Bounds are passed on as bounds.

For one assay, the system named is Staphylococcus aureus. Description: Antibacterial activity against Staphylococcus aureus ATCC 25923 assessed as inhibition of bacterial growth incubated for 24 hr by CLSI based broth microdilution method. In kind it is functional. A general note: In broth dilution the organism is exposed to a series of concentrations in liquid medium.
The next assay relates to Enterococcus faecalis. Nature of the assay: Antibacterial activity against Enterococcus faecalis ATCC 19433 assessed as inhibition of bacterial growth incubated for 24 hr by CLSI based broth microdilution method. It is filed as functional.
In the next assay the test system is Escherichia coli. Description: Antibacterial activity against Escherichia coli ATCC 25922 assessed as inhibition of bacterial growth incubated for 24 hr by CLSI based broth microdilution method. It is filed as functional.
The subject of a further assay is Enterococcus faecium. Description: Antibacterial activity against Enterococcus faecium ATCC 19434 assessed as inhibition of bacterial growth incubated for 24 hr by CLSI based broth microdilution method. In kind it is functional.
A further assay deals with Salmonella enterica. Nature of the assay: microbe, parasite or virus in culture. The note with it: ATCC 14028, 24 h.
For assay [1], the system named is Mycobacterium tuberculosis. Nature of the assay: Antibacterial activity against Mycobacterium tuberculosis mc2 6230 assessed as bacterial growth inhibition incubated for 5 days by resazurin microtiter assay. The note with it: mc2 6230, 120 h, time 5 day. It is filed as functional.
In another assay the test system is Klebsiella pneumoniae. Nature of the assay: Antibacterial activity against Klebsiella pneumoniae ATCC 10031 assessed as inhibition of bacterial growth incubated for 24 hr by CLSI based broth microdilution method. It is filed as functional.
For the next assay, the system named is SNU-638. Description: Antiproliferative activity against human SNU-638 cells assessed as reduction in cell viability incubated for 72 hr by SRB assay. Conditions: SNU-638, 72 h. It is filed as functional, cell-based.
A further assay concerns A498. Description: Antiproliferative activity against human A498 cells assessed as reduction in cell viability incubated for 72 hr by SRB assay. The note with it: A498, 72 h. It is filed as functional, cell-based.
A further assay relates to HCT-116. Description: Antiproliferative activity against human HCT116 cells assessed as reduction in cell viability incubated for 72 hr by SRB assay. The note with it: HCT-116, 72 h. It is filed as functional, cell-based.
The subject of the next assay is MDA-MB-231. Nature of the assay: Antiproliferative activity against human MDA-MB-231 cells assessed as reduction in cell viability incubated for 72 hr by SRB assay. In kind it is functional, cell-based. The note with it: MDA-MB-231, 72 h.
The subject of a further assay is SK-HEP1. Description: Antiproliferative activity against human SK-HEP1 cells assessed as reduction in cell viability incubated for 72 hr by SRB assay. It is filed as functional, cell-based. Conditions: SK-HEP1, 72 h. Background: Sulforhodamine B stains cellular protein and so reports cell mass.
The nature of assay [2]: Inhibition of Staphylococcus aureus ATCC6538p Sortase A incubated for 1 hr by fluorescence spectrophotometric analysis.
A further assay deals with Candida albicans. Description: Antifungal activity against Candida albicans ATCC 10231 assessed as fungal growth inhibition incubated for 24 hrs. In kind it is functional.
The test system of another assay is Aspergillus fumigatus. Description: Antifungal activity against Aspergillus fumigatus HIC 6094 assessed as fungal growth inhibition incubated for 48 hrs. In kind it is functional.
A further assay deals with Trichophyton rubrum. Nature of the assay: Antifungal activity against Trichophyton rubrum NBRC 9185 assessed as fungal growth inhibition incubated for 96 hrs. It is filed as functional.
In assay [3] the test system is Trichophyton mentagrophytes. Nature of the assay: Antifungal activity against Trichophyton mentagrophytes IFM 40996 assessed as fungal growth inhibition incubated for 96 hrs. In kind it is functional.

Description for Salmonella enterica: Antibacterial activity against Salmonella enterica ATCC 14028 assessed as inhibition of bacterial growth incubated for 24 hr by CLSI based broth microdilution method

Regarding `CC1(C)S[C@@H]2[C@H](NC(=O)[C@H](N)c3ccccc3)C(=O)N2[C@H]1C(=O)O` [AMPICILLIN], the MIC came out at 0.13 µg/mL (≈ 0.372 µM) with Staphylococcus aureus; 0.5 µg/mL (≈ 1.43 µM) in the assay with Enterococcus faecalis; 8 µg/mL (≈ 22.9 µM) with Escherichia coli; 0.25 µg/mL (≈ 0.715 µM) in the assay on Enterococcus faecium; 0.13 µg/mL (≈ 0.372 µM) in the assay on Salmonella enterica.
Turning to `COc1nc2ccc(Br)cc2cc1[C@@H](c1ccccc1)[C@@](O)(CCN(C)C)c1cccc2ccccc12` [BEDAQUILINE], the MIC50 – broadly, the lowest concentration that inhibits either 50% of growth or 50% of the strains tested, depending on the study – in assay [1] is 0.5 µg/mL (≈ 0.9 µM).
For the compound `CN(C)[C@@H]1C(O)=C(C(N)=O)C(=O)[C@@]2(O)C(O)=C3C(=O)c4c(O)cccc4[C@@](C)(O)[C@H]3C[C@@H]12` [TETRACYCLINE], in the assay with Klebsiella pneumoniae, the MIC is 0.25 µg/mL (≈ 0.563 µM).
On to `COc1cc([C@@H]2c3cc4c(cc3[C@@H](O[C@@H]3O[C@@H]5CO[C@@H](C)O[C@H]5[C@H](O)[C@H]3O)[C@H]3COC(=O)[C@H]23)OCO4)cc(OC)c1O` [ETOPOSIDE], for which the IC50 – broadly, the concentration needed to halve the response being measured – with SNU-638 amounted to 0.4 µM; in the assay on A498, 0.23 µM; in the assay on HCT-116, 0.25 µM; in the assay on MDA-MB-231, 2.8 µM; in the assay on SK-HEP1, 0.22 µM.
Turning to `Cc1cc2c(c(O[C@@H]3O[C@@H](C)[C@@H](O)[C@@H](O)[C@H]3O)c1)-c1cc3c(c(O)c1[C@@H](O)C2)C(=O)c1c(O)cc(O)cc1C3=O`, the IC50 in the assay with SNU-638, in the assay on A498, in the assay on HCT-116, in the assay on MDA-MB-231 and in the assay on SK-HEP1 was over 20 µM each time. For the same compound, the MIC in the assay on Staphylococcus aureus was over 128 µg/mL; in the assay with Enterococcus faecalis, over 128 µg/mL; in the assay on Klebsiella pneumoniae it was over 128 µg/mL; in the assay with Escherichia coli, over 128 µg/mL; in the assay with Enterococcus faecium, 128 µg/mL (≈ 233 µM); in the assay on Salmonella enterica it was over 128 µg/mL.
Turning to `Cc1c(Cl)c(O[C@@H]2O[C@@H](C)[C@@H](O)[C@@H](O)[C@H]2O)c2cc(O[C@@H]3O[C@@H](C)[C@@H](O)[C@@H](O)[C@H]3O)ccc2c1Cl`, the MIC in [1] was 15 µg/mL (≈ 28 µM); in the assay with Staphylococcus aureus, 8 µg/mL (≈ 14.9 µM); in the assay on Enterococcus faecalis, 16 µg/mL (≈ 29.9 µM); in the assay on Klebsiella pneumoniae, 32 µg/mL (≈ 59.8 µM); in the assay with Escherichia coli it was over 128 µg/mL; in the assay with Candida albicans it was over 128 µg/mL. Also, the MIC in the assay on Aspergillus fumigatus is over 128 µg/mL; with Trichophyton rubrum it was over 128 µg/mL; in assay [3], over 128 µg/mL; in the assay with Enterococcus faecium, 16 µg/mL (≈ 29.9 µM); with Salmonella enterica, 16 µg/mL (≈ 29.9 µM). The IC50 in assay [2] amounted to 63.3 µg/mL (≈ 118 µM); in the assay on SNU-638 it was 8.6 µM; with A498, 18.8 µM; in the assay on HCT-116, 5.6 µM; in the assay on MDA-MB-231, 19.4 µM; with SK-HEP1 it was 14.7 µM.
